# Measurements as given in US20210177805A1 (Ovid Therapeutics Inc., priority 2018, published 2021).
# Experiments:
# [1] = system: subjects with Angelman syndrome; test: Treatment-related and treatment-emergent adverse events in patients with Angelman syndrome
# Description: This multicenter, randomized, parallel (3-arm), double-blind, placebo-controlled trial enrolled 88 patients including adults (n=66) and adolescents (n=22) aged 13 to 49 years of age, diagnosed with Angelman syndrome. […] The dosing schedules that were assessed against placebo were once daily (QD): An evening dose titrated to the target dose of 15 mg unless not tolerated; and twice daily (BID): Evening and morning doses titrated to the target doses of 15 mg evening dose and 10 mg morning dose unless not tolerated.
# Gastrointestinal adverse events may be considered fundamental to the behavioral disturbances seen in autistic spectrum disorders, such as autism and Angelman syndrome.
# [2] = human, in vivo
# Description: Each subject was expected to complete all 6 treatment periods and there was a washout of at least 4 days between each treatment period.
# Each oral dosing within Treatment Periods consisted of 2 capsules of test drug taken simultaneously at each scheduled dosing. […] Subjects received their study drug after an overnight fast with 240 mL of water in the morning about 8:00 AM. Water was permitted ad libitum except within 1 hour prior to and after study drug administration. No food was allowed for 4 hours post dose.
# [3] = system: subjects with Angelman syndrome; test: Sleep diary in patients with Angelman syndrome; format: in vivo, human; settings: for 6-week LS Mean difference, total sleep time at night / 12-week LS Mean difference, total sleep time at night: change from baseline
# Excerpt: The most notable change from patient sleep diaries was in the number of nights slept independently. In the QD dose cohort, one quarter of patients slept every night with parents, at 12 weeks, this had improved to only 1 in 5 nights; in the placebo group, the most effected quarter slept 3 of 4 nights with parents, which had improved to 2 of 4 nights at 12 weeks (P<0.001, Chi Square). The observed and change from baseline in total hours of sleep time at night (assessed from subject Sleep Diary) is provided in Table III.
# [4] = system: subjects with Angelman syndrome; test: Efficacy in patients with Angelman syndrome, Clinical Global Impressions (CGI-S, CGI-I); format: in vivo, human
# Excerpt: CGI-S scale assessed all sub-domains of Angelman syndrome (gross and fine motor ability, sleep, and adaptive behavior) plus globally by the investigator. […] The Clinical Global Impressions-Improvement (CGI-I) scale was used to assess all sub-domains of Angelman syndrome (gross and fine motor ability, sleep, and adaptive behavior) plus globally by the investigator and caregiver. CGI-I is a 7-point scale in which the investigator rates the improvement or worsening of symptoms compared to baseline.
# Moreover, the percentage who were very much improved on CGI-I in the QD group vs placebo went from 20% (vs. 11%) to 27% (vs. 9%) to 33% (vs. 0%) progressing from the oldest to youngest cohorts.
smiles,measurement,setting,value
"Oc1noc2c1CCNC2 [gaboxadol, 4,5,6,7-tetrahydroisoxazolo [5,4-c]pyridine-3-ol]","Abdominal Pain upper, subjects (%)",[1]; BID dosing (N = 29),0
same,"At least 1 Adverse Event, subjects (%)",[1]; BID dosing (N = 29),19 (66%)^
same,"Diarrhea, subjects (%)",[1]; BID dosing (N = 29),1 (3.4%)
same,"Gastrointestinal disorders, subjects (%)",[1]; BID dosing (N = 29),4 (13.8%)
same,"Nausea, subjects (%)",[1]; BID dosing (N = 29),2 (6.9%)
same,"Retching, subjects (%)",[1]; BID dosing (N = 29),1 (3.4%)
same,"Vomiting, subjects (%)",[1]; BID dosing (N = 29),1 (3.4%)
same,"Abdominal Pain upper, subjects (%)",[1]; Combined (N = 58),0
same,"At least 1 Adverse Event, subjects (%)",[1]; Combined (N = 58),37 (64%)^
same,"Diarrhea, subjects (%)",[1]; Combined (N = 58),1 (1.7%)
same,"Gastrointestinal disorders, subjects (%)",[1]; Combined (N = 58),4 (6.9%)
same,"Nausea, subjects (%)",[1]; Combined (N = 58),2 (3.4%)
same,"Retching, subjects (%)",[1]; Combined (N = 58),1 (1.7%)
same,"Vomiting, subjects (%)",[1]; Combined (N = 58),1 (1.7%)
same,"Abdominal Pain upper, subjects (%)",[1]; QD dosing (N = 29),0
same,"At least 1 Adverse Event, subjects (%)",[1]; QD dosing (N = 29),18 (62%)
same,"Diarrhea, subjects (%)",[1]; QD dosing (N = 29),0
same,"Gastrointestinal disorders, subjects (%)",[1]; QD dosing (N = 29),0
same,"Nausea, subjects (%)",[1]; QD dosing (N = 29),0
same,"Retching, subjects (%)",[1]; QD dosing (N = 29),0
same,"Vomiting, subjects (%)",[1]; QD dosing (N = 29),0
same,"CL (CL/F row, footnote for 10 mg IV)","[2]; iv, 10 mg",438 mL/min
same,"AUC0-∞ Slope (90% CI), dose proportionality assessment",[2]; po,"0.98 (0.95, 1.01)"
same,"6-week LS Mean sleep time (total sleep time at night, Sleep Diary)",[3]; BID dosing (N = 29),8.95 (1.1) hours
same,"12-week LS Mean sleep time (total sleep time at night, Sleep Diary)",[3]; BID dosing (N = 29),8.84 (1.1) hours
same,"6-week LS Mean difference, total sleep time at night",[3]; BID dosing,0.30 (1.1) hours
same,"12-week LS Mean difference, total sleep time at night",[3]; BID dosing,0.18 (0.97) hours
same,"6-week LS Mean sleep time (total sleep time at night, Sleep Diary)",[3]; Combined (N = 58),8.93 (1.3) hours
same,"12-week LS Mean sleep time (total sleep time at night, Sleep Diary)",[3]; Combined (N = 58),8.80 (1.1) hours
same,"6-week LS Mean difference, total sleep time at night",[3]; Combined,0.22 (0.94) hours
same,"12-week LS Mean difference, total sleep time at night",[3]; Combined,0.07 (1.0) hours
same,"6-week LS Mean sleep time (total sleep time at night, Sleep Diary)",[3]; QD dosing (N = 29),8.91 (1.5) hours
same,"12-week LS Mean sleep time (total sleep time at night, Sleep Diary)",[3]; QD dosing (N = 29),8.76 (1.2) hours
same,"6-week LS Mean difference, total sleep time at night",[3]; QD dosing,0.14 (0.81) hours
same,"12-week LS Mean difference, total sleep time at night",[3]; QD dosing,−0.04 (1.1) hours
same,CGI-I,"[4]; QD 15 mg evening dose, 7-point scale, vs. 3.8 placebo, p=0.0006",3.0
same,CGI-I 12-week LS Mean,"[4]; QD dosing (N = 29), clinician assessed, MMRM",3.00 (0.16)
